Entries after “also recorded” stand apart in the source; their conditions may differ.
Experiments:
RTV-V245T = assay: Phenotypic susceptibility assay, RTV-V245T; format: cell-based, HIV-1; details: site-directed V245T alone
From the text: (§1) The resistance test vectors containing a functional luciferase gene cassette were constructed and host cells were transfected with the resistance test vector DNA. The resistant test vectors contained patient-derived reverse transcriptase and protease sequences that were either susceptible or resistant to the antiretroviral agents, such as nucleoside reverse transcriptase inhibitors, (NRTIs) non-nucleoside reverse transcriptase inhibitors […] protease inhibitors. The resistance test vector viral particles produced by transfecting the resistance test vector DNA into host cells, either in the presence or absence of PRIs, were used to infect target host cells grown either in the absence of NRTIs or NNRTIs, or in the presence of increasing concentrations of the drug. The amount of luciferase activity produced in infected target host cells in the presence of varying concentrations of drug was compared to the amount of luciferase produced in infected target host cells in the absence of drug. “Drug resistance” was measured as the amount of drug required to inhibit by 50% the luciferase activity detected in the absence of drug (inhibitory concentration 50%, IC50). The IC50 values were determined by plotting percent drug inhibition vs. log10 drug concentration. Stimulation of viral replication was measured as the percent increase in luciferase activity detected when infection occurs in the presence of drug as compared to in the absence of drug.
(§2) Host cells were seeded in 10-cm-diameter dishes and were transfected several days after plating with resistance test vector plasmid DNA and the envelope expression vector. Transfections were performed using a calcium-phosphate precipitation procedure. The cell culture media containing the DNA precipitate was replaced with fresh medium, from one to 24 hours, after transfection. Cell culture media containing resistance test vector viral particles was harvested one to four days after transfection and was passed through a […] filter before being used to infect target host cells, or being stored at −80° C. HIV capsid protein (p24) levels in the harvested cell culture media were determined by an EIA method as described by the manufacturer (SAIC; Frederick, Md.). Before infection, target cells (293 and 293/T) were plated in cell culture media. Control infections were performed using cell culture media from mock transfections (no DNA) or transfections containing the resistance test vector plasmid DNA without the envelope expression plasmid. One to three or more days after infection, the media was removed and cell lysis buffer (Promega) was added to each well. Cell lysates were assayed for luciferase activity (FIG. 3). The inhibitory effect of the drug was determined using the following equation:
(§3) % luciferase inhibition=1−(RLUluc[drug]÷RLUluc)×100
(§4) where RLUluc [drug] is the Relative Light Unit of luciferase activity in infected cells in the presence of drug, and RLUluc is the Relative Light Unit of luciferase activity in infected cells in the absence of drug. IC50values were obtained from the sigmoidal curves that were generated from the data by plotting the percent inhibition of luciferase activity vs. the log10 drug concentration. The percent luciferase stimulation is the negative of the % inhibition calculated using the formula above.
A resistance test vector containing a single mutation, V245T, (RTV-V245T) was constructed and tested in the phenotypic assay described earlier. The results were compared to those determined using a genetically defined resistance test vector that was wild type at position 245. We determined the pattern of phenotypic susceptibility to the NNRTIs, delavirdine, nevirapine and efavirenz, in […].

RTV-011073/241V/277T = assay: Phenotypic susceptibility assay, RTV-011073/241V/277T; format: cell-based, HIV; details: RTV-011073 with 241 and 277 reverted
From the text: The resistance test vectors containing a functional luciferase gene cassette were constructed and host cells were transfected with the resistance test vector DNA. The resistant test vectors contained patient-derived reverse transcriptase and protease sequences that were either susceptible or resistant to the antiretroviral agents, such as nucleoside reverse transcriptase inhibitors, (NRTIs) non-nucleoside reverse transcriptase inhibitors […] protease inhibitors. The resistance test vector viral particles produced by transfecting the resistance test vector DNA into host cells, either in the presence or absence of PRIs, were used to infect target host cells grown either in the absence of NRTIs or NNRTIs, or in the presence of increasing concentrations of the drug. The amount of luciferase activity produced in infected target host cells in the presence of varying concentrations of drug was compared to the amount of luciferase produced in infected target host cells in the absence of drug. […] The IC50 values were determined by plotting percent drug inhibition vs. log10 drug concentration. Stimulation of viral replication was measured as the percent increase in luciferase activity detected when infection occurs in the presence of drug as compared to in the absence of drug.
Host cells were seeded in 10-cm-diameter dishes and were transfected several days after plating with resistance test vector plasmid DNA and the envelope expression vector. […] HIV capsid protein (p24) levels in the harvested cell culture media were determined by an EIA method as described by the manufacturer (SAIC; Frederick, Md.). […] The inhibitory effect of the drug was determined using the following equation: […]
where RLUluc [drug] is the Relative Light Unit of luciferase activity in infected cells in the presence of drug, and RLUluc is the Relative Light Unit of luciferase activity in infected cells in the absence of drug. […] The percent luciferase stimulation is the negative of the % inhibition calculated using the formula above. […]

K103N/M230L-RTV = assay: Phenotypic susceptibility assay, K103N/M230L-RTV; format: cell-based, HIV-1; details: site-directed K103N + M230L
From the text: as §1, §2, §3, §4
The M230L mutation was tested alone and is described in Example 3 above. A resistance test vector containing the M230L mutation and the K103N mutation (K103N/M230L-RTV) was constructed and tested using the phenotypic assay described earlier, and the results were compared to those determined using a genetically defined resistance test vector that was wild type at positions 103 and 230. We determined the pattern of phenotypic susceptibility to the NNRTIs, delavirdine, nevirapine and efavirenz, in the K103N/M230L-RTV. […]

RTV-007130 = assay: Phenotypic susceptibility assay, RTV-007130; format: cell-based, HIV; details: patient 007130; for decrease in susceptibility: 245 with multiple other mutations
From the text: as §1, §2, §3, §4
A resistance test vector was constructed as described in Example 1 from a virus sample obtained from patient 007130. The prior and current treatment regimens are unknown. Isolation of viral RNA and RT/PCR was used to generate a patient derived segment (PDS) that comprised viral sequences coding for all of PR and aa 1-313 of RT. The PDS were inserted into an indicator gene viral vector to generate a resistance test vector designated RTV-007130. RTV-007130 was then tested in a phenotypic assay to determine accurately and quantitatively the level of susceptibility to a panel of anti-retroviral drugs. […]

[1] = system: RTV-1033-3/283L/284R/286T; assay: Phenotypic susceptibility assay, RTV-1033-3/283L/284R/286T; format: cell-based, HIV; details: RTV-1033-3 with L283I, R284K and T286A reverted
From the text: as §1, §2, §3, §4
A resistance test vector containing all of the mutations present in RTV-1033-3 except for L283I, R284K and T286A (RTV-1033-3/283L/284R/286T) was constructed and tested using the phenotypic assay described earlier. The results were compared to those determined using the parent RTV-1033-3. We determined the pattern of phenotypic susceptibility to the NNRTIs, delavirdine, nevirapine and efavirenz, in the reverted vector, RTV-1033-3/283L/284R/286T.

RTV-013522/270I = assay: Phenotypic susceptibility assay, RTV-013522/270I; format: cell-based, HIV; details: RTV-013522 with I270S reverted
From the text: as §1, §2, §3, §4
A resistance test vector containing all of the mutations present in […] except for the I270S (RTV-013522/270I) was constructed and tested using the phenotypic assay described earlier. The results were compared to those determined using the parent RTV-013522. We determined the pattern of phenotypic susceptibility to the NNRTIs, delavirdine, nevirapine and efavirenz, in the reverted vector RTV-013522/270I. […] In this patient sample the correlation of drug-dependent stimulation of viral replication with the mutation at I270S is very striking. […]

Structure (SMILES)	drug-dependent stimulation of viral replication (RTV-V245T)	reductions in susceptibility compared to wild type control RTV (RTV-V245T)	reductions in susceptibility compared to wild type control RTV (RTV-011073/241V/277T)	drug-dependent stimulation of viral replication (K103N/M230L-RTV)	reduction in susceptibility compared to wild type control RTV (K103N/M230L-RTV)	drug-dependent stimulation of viral replication (RTV-007130)	decrease in susceptibility (RTV-007130)	drug-dependent stimulation of viral replication [1]	reductions in susceptibility compared to wild type control RTV [1]	drug-dependent stimulation of viral replication (RTV-013522/270I)	reductions in susceptibility compared to wild type control RTV (RTV-013522/270I)
CC(C)Nc1cccnc1N1CCN(C(=O)c2cc3cc(NS(C)(=O)=O)ccc3[nH]2)CC1 [delavirdine]	no drug-dependent stimulation	no reductions; also recorded: no significant reduction	50 fold	~100%	> 250 fold	~30%	> 250 fold	~40%	7 fold	no longer exhibiting negative inhibition	40 fold
O=C1Nc2ccc(Cl)cc2[C@@](C#CC2CC2)(C(F)(F)F)O1 [efavirenz]	no drug-dependent stimulation	no reductions; also recorded: no significant reduction	54 fold	~40%	> 470 fold	~40%	> 450 fold	~30%	85 fold	no longer exhibiting negative inhibition	8 fold
Cc1ccnc2c1NC(=O)c1cccnc1N2C1CC1 [nevirapine]	no drug-dependent stimulation	no reductions; also recorded: no significant reduction	126 fold	~70%	> 600 fold	~50%	> 600 fold	~80%	> 600 fold	no longer exhibiting negative inhibition	14 fold

— patent publication US6653081B2, “Methods for monitoring antiretroviral therapy and guiding therapeutic decision in the treatment of HIV/AIDS” (ViroLogic, Inc., priority 2000, dated 2003)
